Measured values: the NIST ThermoML archive (doi:10.1021/je0496645)

Conditions: 101.33 kPa, Liquid; for viscosity: Capillary tube (Ostwald / Ubbelohde) method; for mass density: Vibrating tube method

CCCCC(CC)COP(=O)(O)OCC(CC)CCCC (stereo not given) [bis(2-ethylhexyl) hydrogen phosphate]
Conditions | mass density [kg/m3] | viscosity [mPa·s]
303.15 K | 964 | 21.22
313.15 K | 957 | 13.32
323.15 K | 949.5 | 8.559
333.15 K | 942 | 5.83
343.15 K | 934.5 | 4.089
